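Method: 48-hour compound exposure of cells in 96-well plates, five concentrations, linear interpolation of endpoints. At the GI50, growth is halved.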 Active and inactive are the calls of the source. No stated cut-off is given here; in the data, active = GI50 up to about 1.1 µM and inactive = higher.
Key:
Assay in all cases: NCI tumour cell line growth inhibition, 48 h
SF-295 = tested on: SF-295
T47D = tested on: T47D
SK-MEL-28 = tested on: SK-MEL-28
SW-620 = tested on: SW-620
U-251 = tested on: U-251
Hs-578T = tested on: Hs-578T
NCI-H226 = tested on: NCI-H226
RXF 393 = tested on: RXF 393
M14 = tested on: M14
MDA-MB-435 = tested on: MDA-MB-435
OVCAR-5 = tested on: OVCAR-5
MOLT-4 = tested on: MOLT-4
NCI-H23 = tested on: NCI-H23
BT-549 = tested on: BT-549
SNB-19 = tested on: SNB-19
HCT-116 = tested on: HCT-116
SNB-75 = tested on: SNB-75
MCF7 = tested on: MCF7
UO-31 = tested on: UO-31

Row | SMILES | GI50 (SF-295) | GI50 (T47D) | GI50 (SK-MEL-28) | GI50 (SW-620) | GI50 (U-251) | GI50 (Hs-578T) | GI50 (NCI-H226) | GI50 (RXF 393) | GI50 (M14) | GI50 (MDA-MB-435) | GI50 (OVCAR-5) | GI50 (MOLT-4) | GI50 (NCI-H23) | GI50 (BT-549) | GI50 (SNB-19) | GI50 (HCT-116) | GI50 (SNB-75) | GI50 (MCF7) | GI50 (UO-31)
1 | O=S(=O)(N/C(=N\O)Nc1ccc(Cl)cc1)c1cc(C(F)(F)F)cc(C(F)(F)F)c1 | 18.3 µM (inactive) | 22.4 µM (inactive) | 19.2 µM (inactive) | 34.3 µM (inactive) | 16.6 µM (inactive) | 23 µM (inactive) | 19.1 µM (inactive) | 19 µM (inactive) | 17.4 µM (inactive) | 20.3 µM (inactive) | 16.3 µM (inactive) | 19 µM (inactive) | 19.9 µM (inactive) | 18.7 µM (inactive) | 17.1 µM (inactive) | 17.5 µM (inactive) | 16 µM (inactive) | – | –
2 | COC(=O)c1sc(=S)sc1SCc1ccccc1CSc1sc(=S)sc1C(=O)OC | 58.9 µM (inactive) | – | > 100 µM (inactive) | > 100 µM (inactive) | > 100 µM (inactive) | > 100 µM (inactive) | > 100 µM (inactive) | 44.3 µM (inactive) | > 100 µM (inactive) | > 100 µM (inactive) | > 100 µM (inactive) | > 100 µM (inactive) | > 100 µM (inactive) | > 100 µM (inactive) | 77.1 µM (inactive) | > 100 µM (inactive) | 38.6 µM (inactive) | > 100 µM (inactive) | > 100 µM (inactive)
3 | CC1=NOC2(C1)C(=O)Nc1ccccc12 (configuration not stated) | > 100 µM (inactive) | > 100 µM (inactive) | > 100 µM (inactive) | 24.4 µM (inactive) | > 100 µM (inactive) | > 100 µM (inactive) | 50.8 µM (inactive) | > 100 µM (inactive) | > 100 µM (inactive) | > 100 µM (inactive) | > 100 µM (inactive) | > 100 µM (inactive) | > 100 µM (inactive) | – | 40.6 µM (inactive) | > 100 µM (inactive) | 66.2 µM (inactive) | 9.79 µM (inactive) | 0.0121 µM (active)
4 | COC(=O)/C=C1\C(CO[Si](C)(C)C(C)(C)C)OC(n2cc(C)c(=O)n(C)c2=O)C1O[Si](C)(C)C(C)(C)C (configuration not stated) | > 100 µM (inactive) | – | > 100 µM (inactive) | > 100 µM (inactive) | 81.7 µM (inactive) | > 100 µM (inactive) | > 100 µM (inactive) | – | > 100 µM (inactive) | 62.4 µM (inactive) | > 100 µM (inactive) | > 100 µM (inactive) | > 100 µM (inactive) | – | > 100 µM (inactive) | 71.4 µM (inactive) | > 100 µM (inactive) | 27 µM (inactive) | > 100 µM (inactive)
5 | COc1ccc(-c2c(C#N)c(O)n(NS(=O)(=O)c3ccc(C)cc3)c(=O)c2C#N)cc1 | 75 µM (inactive) | – | 82.8 µM (inactive) | 57.4 µM (inactive) | 67.8 µM (inactive) | > 100 µM (inactive) | > 100 µM (inactive) | 66.5 µM (inactive) | > 100 µM (inactive) | 75 µM (inactive) | > 100 µM (inactive) | 20.5 µM (inactive) | – | 54.8 µM (inactive) | 83.2 µM (inactive) | 56 µM (inactive) | > 100 µM (inactive) | 48.6 µM (inactive) | –
6 | O=C(Cc1ccccc1)N/N=C(/CCN1CCCC1)CC(c1ccccc1)c1c(O)c2ccccc2oc1=O (configuration not stated) | – | – | > 100 µM (inactive) | > 100 µM (inactive) | > 100 µM (inactive) | 76.7 µM (inactive) | > 100 µM (inactive) | – | > 100 µM (inactive) | > 100 µM (inactive) | > 100 µM (inactive) | 46.6 µM (inactive) | 55.7 µM (inactive) | 83.4 µM (inactive) | > 100 µM (inactive) | 80.2 µM (inactive) | > 100 µM (inactive) | 22 µM (inactive) | > 100 µM (inactive)
7 | CC1(C)CC(=O)C2=C(C1)NC(SCC(=O)O)=C(C#N)C2c1ccc(Br)cc1 (configuration not stated) | > 100 µM (inactive) | – | > 100 µM (inactive) | > 100 µM (inactive) | > 100 µM (inactive) | > 100 µM (inactive) | > 100 µM (inactive) | > 100 µM (inactive) | > 100 µM (inactive) | > 100 µM (inactive) | > 100 µM (inactive) | – | > 100 µM (inactive) | > 100 µM (inactive) | > 100 µM (inactive) | > 100 µM (inactive) | > 100 µM (inactive) | > 100 µM (inactive) | 4.56 µM (inactive)
8 | COc1cccc(/C=N/NC(N)=O)c1O | > 100 µM (inactive) | – | > 100 µM (inactive) | > 100 µM (inactive) | > 100 µM (inactive) | – | > 100 µM (inactive) | > 100 µM (inactive) | > 100 µM (inactive) | – | > 100 µM (inactive) | > 100 µM (inactive) | > 100 µM (inactive) | – | > 100 µM (inactive) | > 100 µM (inactive) | > 100 µM (inactive) | – | > 100 µM (inactive)

Reference: ChEMBL document CHEMBL1201862, “PubChem BioAssay data set” (2004)
